Assay results from US20110015067A1, “Herbicidal Compositions Comprising Pyroxasulfone” (BASF SE, priority 2008, published 2011).
Read-outs that look alike come from different tables or passages of the source.

Columns and labels:
[1] = system: BRAPL (Brachiaria plantaginea); experiment: pre-emergence greenhouse test; format: in vivo; details: for observed activity in % destruction: pre-emergence
Outline: (§1)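 Compounds suspended or emulsified in water and sprayed onto soil directly after sowing, pots then covered until rooting. Herbicides formulated as 10% suspension concentrates or commercial products, alone or mixed with safener. Damage scored 0-100% versus untreated plants at 8 and/or 20 days after treatment.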

PHBPU (Ipomoea purpurea) = experiment: pre-emergence greenhouse test; format: in vivo; details: for observed activity in % destruction: pre-emergence, 50 g ai/ha
Outline: as §1

[2] = system: PANDI (Panicum dichotomiflorum); experiment: pre-emergence greenhouse test; format: in vivo; details: for observed activity in % destruction: pre-emergence
Outline: as §1

[3] = system: PANMI (Panicum milliaceum); experiment: pre-emergence greenhouse test; format: in vivo
Outline: as §1

ERBVI [4] = experiment: pre-emergence greenhouse test; format: in vivo; details: for observed activity in % destruction: pre-emergence, 25 g ai/ha
Outline: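 Compounds suspended or emulsified in water were sprayed through fine nozzles directly after sowing, then pots were gently irrigated and kept under transparent hoods until rooting. Herbicidal effect of solo compounds and mixtures was rated 8 and/or 20 days after treatment on a 0–100% damage scale versus untreated controls.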

harmful plants = details: known from Y. Yamaji et al. 2006; cited from earlier work
SETFA (Setaria faberii) = experiment: post-emergence greenhouse test; format: in vivo; details: Setaria faberi, use rate 25 g ai/ha, read-out: observed % activity
Outline: (§2)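 Plants grown to 3–20 cm, then sprayed post-emergence with herbicides, solo or mixed, with or without safener, in water as carrier. Damage scored visually 0–100% versus untreated controls at 8 and/or 20 days after treatment.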

[5] = system: BRAPL (Brachiaria plantaginea); experiment: post-emergence greenhouse test; format: in vivo; details: Urochloa plantaginea, read-out: observed % activity; for inhibition at 6.25 g/ha: use rate 6.25 g ai/ha; for inhibition at 12.5 g/ha: use rate 12.5 g ai/ha
Outline: as §2

[6] = system: ABUTH (Abutilon theophrasti); experiment: post-emergence greenhouse test; format: in vivo; details: use rate 6.25 g ai/ha, read-out: observed % activity
Outline: as §2

[7] = system: ALOMY (Alopecurus myosuroides); experiment: post-emergence greenhouse test; format: in vivo; details: for observed activity in % destruction: 50 g ai/ha; for inhibition at 6.25 g/ha / inhibition at 25 g/ha / inhibition at 50 g/ha: Alopecurus myosuroides, read-out: observed % activity; for inhibition at 6.25 g/ha: use rate 6.25 g ai/ha; for inhibition at 25 g/ha: use rate 25 g ai/ha; for inhibition at 50 g/ha: use rate 50 g ai/ha
Outline: as §2

[8] = system: PANDI (Panicum dichotomiflorum); experiment: post-emergence greenhouse test; format: in vivo; details: use rate 25 g ai/ha, read-out: observed % activity
Outline: as §2

ELEIN (Eleusine indica) = experiment: post-emergence greenhouse test; format: in vivo; details: use rate 6.25 g ai/ha, read-out: observed % activity
Outline: as §2

[9] = system: MERAN (Mercurialis annua); experiment: post-emergence greenhouse test; format: in vivo; details: for observed activity in % destruction: 50 g ai/ha; for inhibition at 50 g/ha: Mercurialis annua, use rate 50 g ai/ha, read-out: observed % activity
Outline: as §2

[10] = system: AMBEL (Ambrosia artemisifolia); experiment: post-emergence greenhouse test; format: in vivo; details: for observed activity in % destruction: 25 g ai/ha; for inhibition at 50 g/ha: Ambrosia, use rate 50 g ai/ha, read-out: observed % activity
Outline: as §2

[11] = system: CHEAL (Chenopodium album); experiment: post-emergence greenhouse test; format: in vivo; details: for inhibition at 6.25 g/ha / inhibition at 25 g/ha / inhibition at 50 g/ha: Chenopodium album, read-out: observed % activity; for inhibition at 6.25 g/ha: use rate 6.25 g ai/ha; for inhibition at 25 g/ha: use rate 25 g ai/ha; for inhibition at 50 g/ha: use rate 50 g ai/ha
Outline: as §2

ERBVI [12] = experiment: post-emergence greenhouse test; format: in vivo; details: use rate 12.5 g ai/ha, read-out: observed % activity
Outline: as §2

[13] = BRAPL pre-emergence 6.25 g ai/ha
[14] = BRAPL pre-emergence 12.5 g ai/ha
[15] = PANDI pre-emergence 6.25 g ai/ha

With `Cn1nc(C(F)(F)F)c(CS(=O)(=O)C2=NOC(C)(C)C2)c1OC(F)F` [pyroxasulfone, 3-[5-(difluoromethoxy)-1-methyl-3-(trifluoromethyl)pyrazol-4-ylmethylsulfonyl]-4,5-dihydro-5,5-dimethyl-1,2-oxazole] the “observed % destruction 8 DAT” value [1, 13] was 30%, the “observed % destruction 20 DAT” value [1, 13] was 70% and the “observed % destruction 8 DAT” value [1, 14] was 35%. The “observed % destruction 20 DAT” value [1, 14] was 80%, the “observed % destruction 8 DAT” value ([1]; BRAPL pre-emergence 25 g ai/ha) was 60% and the “observed % destruction 20 DAT” value ([1]; BRAPL pre-emergence 25 g ai/ha) was 95%. The “observed % destruction 20 DAT” value ([1]; BRAPL pre-emergence 50 g ai/ha) was 98%, the “observed activity in % destruction” value ([1]; 12.5 g ai/ha, 8 DAT) was 35% and the “observed activity in % destruction” value ([1]; 12.5 g ai/ha, 20 DAT) was 80%. For the same compound, the “observed activity in % destruction” value ([1]; 25 g ai/ha, 8 DAT) was 60%, the “observed activity in % destruction” value ([1]; 25 g ai/ha, 20 DAT) was 95% and the “observed activity in % destruction” value ([1]; 50 g ai/ha, 8 DAT) was 70%. The “observed activity in % destruction” value ([1]; 50 g ai/ha, 20 DAT) was 98%, the “observed % destruction 20 DAT” value (PHBPU (Ipomoea purpurea); PHBPU pre-emergence 6.25 g ai/ha) was 0% and the “observed % destruction 20 DAT” value (PHBPU (Ipomoea purpurea); PHBPU pre-emergence 12.5 g ai/ha) was 55%. The “observed % destruction 20 DAT” value (PHBPU (Ipomoea purpurea); PHBPU pre-emergence 50 g ai/ha) was 75%, the “observed activity in % destruction” value (PHBPU (Ipomoea purpurea); 8 DAT) was 30% and the “observed activity in % destruction” value (PHBPU (Ipomoea purpurea); 20 DAT) was 75%. For the same compound, the “observed % destruction 8 DAT” value [2, 15] was 65%, the “observed % destruction 20 DAT” value [2, 15] was 90% and the “observed % destruction 8 DAT” value ([2]; PANDI pre-emergence 25 g ai/ha) was 90%. For the same compound, the “observed % destruction 20 DAT” value ([2]; PANDI pre-emergence 25 g ai/ha) was 100%, the “observed % destruction 8 DAT” value ([2]; PANDI pre-emergence 50 g ai/ha) was 90% and the “observed % destruction 20 DAT” value ([2]; PANDI pre-emergence 50 g ai/ha) was 100%. The “observed activity in % destruction” value ([2]; 6.25 g ai/ha, 8 DAT) was 65%, the “observed activity in % destruction” value ([2]; 6.25 g ai/ha, 20 DAT) was 90% and the “observed activity in % destruction” value ([2]; 12.5 g ai/ha, 8 DAT) was 80%. The “observed activity in % destruction” value ([2]; 12.5 g ai/ha, 20 DAT) was 100%, the “observed activity in % destruction” value ([2]; 50 g ai/ha, 8 DAT) was 90% and the “observed activity in % destruction” value ([2]; 50 g ai/ha, 20 DAT) was 100%. For the same compound, the “observed % destruction 20 DAT” value ([3]; PANMI pre-emergence 6.25 g ai/ha) was 35%, the “observed % destruction 20 DAT” value ([3]; PANMI pre-emergence 25 g ai/ha) was 85% and the “observed % destruction 8 DAT” value ([3]; PANMI pre-emergence 50 g ai/ha) was 75%. For the same compound, the “observed % destruction 20 DAT” value ([3]; PANMI pre-emergence 50 g ai/ha) was 90%, the “observed % destruction 20 DAT” value (ERBVI [4]; ERBVI pre-emergence 6.25 g ai/ha) was 40% and the “observed % destruction 20 DAT” value (ERBVI [4]; ERBVI pre-emergence 12.5 g ai/ha) was 55%. The “observed % destruction 8 DAT” value (ERBVI [4]; ERBVI pre-emergence 25 g ai/ha) was 60%, the “observed % destruction 20 DAT” value (ERBVI [4]; ERBVI pre-emergence 25 g ai/ha) was 75% and the “observed activity in % destruction” value (ERBVI [4]; 8 DAT) was 60%. The “observed activity in % destruction” value (ERBVI [4]; 20 DAT) was 75%, the post-emergence activity (harmful plants) was “poor” and the inhibition at 25 g/ha (SETFA (Setaria faberii); 192 h, 8 DAT) was 55%. For the same compound, the inhibition at 25 g/ha (SETFA (Setaria faberii); 480 h, 20 DAT) was 90%, the inhibition at 6.25 g/ha ([5]; 192 h, 8 DAT) was 20% and the inhibition at 12.5 g/ha ([5]; 192 h, 8 DAT) was 30%. It also gave an inhibition at 6.25 g/ha ([5]; 480 h, 20 DAT) of 40%, an inhibition at 12.5 g/ha ([5]; 480 h, 20 DAT) of 45% and an inhibition at 6.25 g/ha ([6]; 192 h, 8 DAT) of 40%. The inhibition at 6.25 g/ha ([6]; 480 h, 20 DAT) was 40%, the “observed activity in % destruction” value ([7]; 8 DAT) was 30% and the “observed activity in % destruction” value ([7]; 20 DAT) was 75%. The inhibition at 6.25 g/ha ([7]; 192 h, 8 DAT) was 20%, the inhibition at 25 g/ha ([7]; 192 h, 8 DAT) was 30% and the inhibition at 50 g/ha ([7]; 192 h, 8 DAT) was 30%. It also gave an inhibition at 6.25 g/ha ([7]; 480 h, 20 DAT) of 30%, an inhibition at 25 g/ha ([7]; 480 h, 20 DAT) of 55% and an inhibition at 50 g/ha ([7]; 480 h, 20 DAT) of 75%. For the same compound, the inhibition at 25 g/ha ([8]; 192 h, 8 DAT) was 60%, the inhibition at 25 g/ha ([8]; 480 h, 20 DAT) was 85% and the inhibition at 6.25 g/ha (ELEIN (Eleusine indica); 192 h, 8 DAT) was 55%. For the same compound, the inhibition at 6.25 g/ha (ELEIN (Eleusine indica); 480 h, 20 DAT) was 90%, the “observed activity in % destruction” value ([9]; 8 DAT) was 45% and the “observed activity in % destruction” value ([9]; 20 DAT) was 85%. The inhibition at 50 g/ha ([9]; 192 h, 8 DAT) was 45%, the inhibition at 50 g/ha ([9]; 480 h, 20 DAT) was 85% and the “observed activity in % destruction” value ([10]; 8 DAT) was 50%. For the same compound, the “observed activity in % destruction” value ([10]; 20 DAT) was 40%, the inhibition at 50 g/ha ([10]; 192 h, 8 DAT) was 50% and the inhibition at 50 g/ha ([10]; 480 h, 20 DAT) was 70%. For the same compound, the “observed activity in % destruction” value ([11]; 6.25 g ai/ha, 8 DAT) was 0%, the “observed activity in % destruction” value ([11]; 6.25 g ai/ha, 20 DAT) was 0% and the “observed activity in % destruction” value ([11]; 12.5 g ai/ha, 8 DAT) was 20%. The “observed activity in % destruction” value ([11]; 12.5 g ai/ha, 20 DAT) was 30%, the “observed activity in % destruction” value ([11]; 25 g ai/ha, 8 DAT) was 35% and the “observed activity in % destruction” value ([11]; 25 g ai/ha, 20 DAT) was 30%. For the same compound, the “observed activity in % destruction” value ([11]; 50 g ai/ha, 8 DAT) was 45%, the “observed activity in % destruction” value ([11]; 50 g ai/ha, 20 DAT) was 60% and the inhibition at 6.25 g/ha ([11]; 192 h, 8 DAT) was 0%. The inhibition at 25 g/ha ([11]; 192 h, 8 DAT) was 35%, the inhibition at 50 g/ha ([11]; 192 h, 8 DAT) was 45% and the inhibition at 6.25 g/ha ([11]; 480 h, 20 DAT) was 0%. It also gave an inhibition at 25 g/ha ([11]; 480 h, 20 DAT) of 30%, an inhibition at 50 g/ha ([11]; 480 h, 20 DAT) of 60% and an inhibition at 12.5 g/ha (ERBVI [12]; 192 h, 8 DAT) of 40%. For the same compound, the inhibition at 12.5 g/ha (ERBVI [12]; 480 h, 20 DAT) was 75%.
